# A melting point compilation (Tetko et al.; mined from patent text by program, amines drawn as free bases though some values may be those of a salt)
row,Structure (SMILES),melting point
1,Cc1c2c(c(C)c3c1OC(C)(CI)C3)N(C=O)C(C)(C)C2 (stereo not given),124 to 126 °C
2,Cc1ccsc1C(=O)c1cccn1N,42 to 44 °C
3,O=C(O)C(Nc1ccc2ccccc2c1)c1c(Cl)cccc1Cl (stereo not given),94.5 °C
4,Cc1c(C(O)C(C)(C)C)cc(I)[nH]c1=O (stereo not given),186 to 187 °C
5,Cc1c(Br)ccc(F)c1N,49 to 50 °C
6,OCc1cc(Cl)c(F)c(Cl)c1F,55 °C
7,NS(=O)(=O)c1cc(C(=O)O)cc(NCc2ccccc2)c1-c1ccccc1,221 to 222 °C
8,CSCCOC(=O)N(C)c1nnc(-c2cccnc2)s1,126 to 128 °C
9,O=[N+]([O-])c1ccc(F)cc1OCC(F)(F)F,44 to 45 °C
10,CCCCc1nc(Cl)c(CC(=O)OCC)c(Cc2ccc(C(=O)O)cc2)n1,130 °C
11,CS(=O)(=O)OCCCc1ccccc1OCc1coc(/C=C/c2ccccc2)n1,93 to 94 °C
12,CNC(=O)CCC(=O)c1c(OC)cccc1OC,134 °C
13,Nc1ncc(Cl)c(Cl)c1Cl,160 to 162 °C
14,O=C(Nc1ccc(C(F)(F)F)cc1)Nc1ccc(C(=O)N2CCOCC2)s1,250 to 253 °C
15,CSc1ncccc1NC(=O)CCCCCCCCSc1nc2ccccc2s1,107 to 108 °C
16,CC(C)c1nc2ccccc2cc1S(=O)(=O)c1ccc(O)cc1,185 °C
17,COC(=O)c1cccc2c(CCl)c(C)sc12,125 to 126 °C
18,Cc1c(C)c2c(c(C)c1N)CC(C)(CN1CCN(C(=O)c3ccc([N+](=O)[O-])cc3)CC1)O2 (stereo not given),154 to 158 °C
19,CCCCCCc1nc(C(C)=O)c[nH]1,104 to 106 °C
20,COC(=O)c1ccc(O)cc1NC(=O)NS(=O)(=O)c1ccc(Cl)cc1,244 to 248 °C

row,Structure (SMILES),melting point
1,CCOC(=O)CNC(=O)C=C(c1ccc(Cl)cc1)c1ccc(Cl)cc1,123 to 124 °C
2,c1ccc(-c2c3ccccc3nc3ccccc23)nc1,192 to 205 °C
3,CCCn1nc(Cc2ccc(-c3ccccc3S(=O)(=O)NC(=O)c3ccccc3)cc2)c(C(=O)O)c1Cc1ccccc1,105 to 109 °C
4,Cc1cc(SCc2ccc(OCc3ccc(C(F)(F)F)cc3)cc2)c(Cl)cc1OCC(=O)O,142 to 143 °C
5,COc1c(O)cnc(C)c1C,274 to 276 °C
6,C=CCNC(=O)N(O)Cc1c(C)n(C(=O)c2ccc(Cl)cc2)c2ccc(OC)cc12,148 to 149 °C
7,NS(=O)(=O)c1cccc(-c2cccc(-c3nc(-c4ccc(C(F)(F)F)nc4)cc(C(F)F)n3)c2)c1,222 °C
8,CNC(=S)OCc1nc(C(C)C)c(Sc2cc(Cl)cc(Cl)c2)n1C,119 to 121 °C
9,O=C(O)[C@@H]1CCCN1C(=O)C1CCCCN1 (stereo not given in full),181 °C
10,COc1ccc(C(CN(C)C(=O)/C=C/c2cccnc2)=NO)cc1OC,172 to 173 °C
11,COc1ccc(-c2c(Cl)ncn2-c2ccc(S(=O)(=O)NC(C)(C)C)cc2)cc1F,208 to 210 °C
12,Oc1ccc(C2(c3ccc(O)cc3)c3ccccc3C(c3ccc(O)cc3)(c3ccc(O)cc3)c3ccccc32)cc1,208 to 209 °C
13,O=c1nc(N(Cc2nnn[nH]2)c2ccc(Cl)cc2)sc2ncccc12,258 to 259 °C
14,CN(C)S(=O)(=O)c1cc(N)c(N)c([N+](=O)[O-])c1,211 to 213 °C
15,COCCNS(=O)(=O)c1ccc(Nc2nccc(-c3sc(-c4cccnc4)nc3C)n2)cc1,252 to 254 °C
16,CC1Oc2ccc(C(F)(F)F)cc2NC1=O (stereo not given),142 to 144 °C
17,CCCc1c(C(=O)OCC)nc2c(CCC)c3oc(C(=O)OCC)cc(=O)c3cc2c1Cl,145 to 147 °C
18,CC1(C=C(Cl)Cl)CN(C(=O)Nc2ccc(OC(F)(F)F)cc2)N=C1c1ccc(Cl)cc1 (stereo not given),138 to 141 °C
19,CC(C)(CO)c1ccc(C(=O)Nc2cn3cc(-c4ccoc4)ccc3n2)cc1,246 to 248 °C
20,OCC1OC(c2ccc(Cl)c(Cc3ccc(-c4ccc(F)nc4)s3)c2)C(O)C(O)C1O (stereo not given),131 to 134 °C

row,Structure (SMILES),melting point
1,COc1ccc(CC(N(C)S(=O)(=O)c2ccc(C)cc2)C(C)(C)C(=O)Cl)cc1 (stereo not given),110 to 111 °C
2,CCON=C(C(C)=NO)c1ccc(OC(C)c2ccc(Cl)cc2)cc1 (stereo not given),132 to 134 °C
3,CC(=O)Oc1ccc(-c2cnc(NC(=S)Cc3ccccc3)c(Cc3ccccc3)n2)cc1,143 to 145 °C
4,Fc1ccc(-c2cncc(CNCCOc3cccc4ccccc34)c2)cc1,92 to 94 °C
5,CC1(C)CC(=C(c2ccccc2)c2ccc(OCCOCCO)cc2)CC(C)(C)C1,116 to 117 °C
6,CCC(O)(c1ccc(OCc2ccccc2)cc1)c1ccc(Cl)cc1Cl (stereo not given),56 to 57 °C
7,CN(C(=O)Nc1ccccc1)C1CCCCC1,195 to 197 °C
8,COc1cc(OC)c(C(=O)CCCCCl)cc1N,87 to 88 °C
9,CCOC1CC2(C)C(CCC3C4CCC(C(=O)OC)C4(C)CC(NCCC(C)C)C32)CC1O (stereo not given),122 to 124 °C
10,CC(C)(CO)NC(=O)c1nn(-c2ccc(Cl)cc2F)c2c1C1CCC2C1 (stereo not given),158 to 160 °C
11,CS(=O)(=O)c1ccc(-c2cnn(CC(F)(F)F)c(=O)c2Nc2ccc(F)cc2)cc1,158 to 160 °C
12,CC(C)(C)OC(=O)C(CNC(=O)c1ccc(O)cc1)NC(=O)OCc1ccccc1 (stereo not given),69 °C
13,CCC(=O)C(=O)Nc1c(C)c(C)c2c(c1C)C(c1ccc(C(C)C)cc1)CO2 (stereo not given),97 to 98 °C
14,CC(C)(C)NS(=O)(=O)c1ccccc1-c1ccc(CBr)c(F)c1,138 to 140 °C
15,CCCCOC(=O)c1cc(NC(=O)C2=C(C)OCCS2)ccc1Cl,71 to 73 °C
16,CN(C)C1CCCCCCCCCCC1N(C)C(=O)c1ccc(C(F)(F)F)cc1 (stereo not given),69 to 70 °C
17,CCC(C)C1Sc2ccccc2NC1=O (stereo not given),99 to 100 °C
18,O=C(Nc1ccc([N+](=O)[O-])cc1)C(F)F,188 to 189 °C

# Second part, the compound after the results:
row,melting point,Structure (SMILES)
1,235 to 237 °C,O=C(C1CN(S(=O)(=O)c2ccc3cc(Br)ccc3c2)CCN1C(=O)C1CCN(c2ccncc2)CC1)N1CCOCC1 (stereo not given)
2,70 to 71 °C,Cn1nc(-c2ccc(OC(F)(F)F)cc2)cc1CBr
3,181 to 183 °C,CCOC(=O)c1cnc2cc(N)ccc2n1
4,187 to 189 °C,CNC(=S)c1ccncc1C1c2ccccc2CC1(C)C (stereo not given)
5,211 to 213 °C,C#CCN1CCN(c2c(Cl)cc3c(=O)c(C(=O)O)cn4c3c2CCC4C)CC1 (stereo not given)
6,85 to 86 °C,COc1ccc(CN2C(=O)C[C@H]2[C@@H]2COC(C)(C)O2)c(OC)c1
7,> 240 °C,CC(=O)c1ccc(NS(=O)(=O)c2ccc3c(c2)-c2c(nc(C)[nH]c2=O)CC3)cc1
8,245 to 252 °C,COc1cc2ncnc(N3CCc4cc5[nH]ccc5cc43)c2cc1OC
9,314 to 315 °C,O=C1c2cccc3c4c(cc(c23)C(=O)N1O)COCO4
10,76 °C,Cc1cc(-n2ccnc2)c2cccc(OCc3c(Cl)ccc(S(=O)(=O)N4CCC[C@H]4CO)c3Cl)c2n1
11,151 to 153 °C,CC(C)(CO)Nc1nc(-c2ccc(Br)cc2)cs1
12,202 to 203 °C,CC(=O)Nc1c(C(=O)C2CCCC(C)C2)[nH]c2cc(Cl)ccc12 (stereo not given)
13,132 to 134 °C,O=C(c1ccc(Cl)cc1)c1ccc2c(c1)C(=O)N(Cc1cccnc1)C2=O
14,226 to 228 °C,Cc1ccc(OC2CCN(C(=O)C(=O)Nc3ccc4c(c3)OCC(=O)N4)CC2)cc1
15,245 to 247 °C,O=c1c2ccoc2c2cccnc2n1-c1ccccc1
16,159 to 160 °C,O=c1c(-c2ccccc2)c[nH]n1-c1ncccn1
17,146 °C,O=C1CCC(O)(c2ccc(Cl)c(Cl)c2)CN1Cc1ccc(F)cc1 (stereo not given)
18,108 to 110 °C,CCNC(=O)NCC1CC1c1cccn2nc(C)cc12 (stereo not given)
19,129 to 131 °C,N#Cc1cnc2cc(/C=C/CCN3CCOCC3)ccc2c1Nc1ccc(Cl)cc1Cl
20,81 to 82 °C,Cc1ccc(-c2cc[nH]c2CC[N+](=O)[O-])cc1
21,139 to 140 °C,CCCC(OC)c1ccc(Cl)c2nc3n(c12)CCCN3c1ccc(Cl)cc1Cl (stereo not given)

row,melting point,Structure (SMILES)
1,155 to 157 °C,CC(C)(C)OC(=O)NC(Cc1c[nH]c2ccccc12)C(=O)OCCl (stereo not given)
2,190 to 192 °C,CC(C)(C)OC(=O)[C@@H]1CCCN2C(=O)CC[C@H](NC(=O)OCC3c4ccccc4-c4ccccc43)C(=O)N12
3,186 to 187 °C,C[C@@H](NC(=O)c1nsc(-c2ccc(Cl)cc2)n1)[C@](O)(Cn1cncn1)c1ccc(F)cc1F
4,188 °C,CN1C(C(=O)NC2CCC(O)CC2)C(c2cccc(Cl)c2F)C2(C(=O)Nc3cc(Cl)ccc32)C1CC(C)(C)C (stereo not given)
5,230 to 231 °C,COc1cc(OC)c2c(=O)[nH]c(-c3ccc(OCCN4CCCC4)c(C)c3)nc2c1
6,167 to 172 °C,CCC(=O)c1cc(C2(c3cccc(-c4cncnc4)c3)N=C(N)N(C)C2=O)cs1 (stereo not given)
7,182 °C,COc1ccc(CCNCCCOc2ccccc2NC(=O)c2cccc3[nH]ccc23)cc1OC
8,114 to 117 °C,O=C1c2ccccc2C(=O)N1CCN1CCN(C(c2ccccc2)c2ccccn2)CC1 (stereo not given)
9,59 to 61 °C,CN1CCC(c2c[nH]c3ccc(Cn4cncn4)cc23)C1 (stereo not given)
10,225 to 228 °C,COc1cc(O)cc2nc(-c3ccc(O)cc3)oc12
11,150 to 151 °C,COc1ccc(CNc2nc(Cl)nc(Cl)c2C(=O)O)cc1Cl
12,131 to 132 °C,CCc1cc(-c2cccnc2)nn1-c1ccc(NCc2ccc(OCCCC#N)cc2)cc1
13,274 °C,Cc1ccc2c(c1)c(N1CCNCC1)c(C#N)c(=O)n2C
14,249 to 250 °C,CC(C)Cn1c(=O)n(C)c(=O)c2cnc(N)nc21
15,167 to 170 °C,O=C(c1ccccc1)N1CCc2cc(S(=O)(=O)n3cc(-c4ccccc4)[nH]c3=O)ccc21
16,184 °C,Cc1csc(NCCN2CCC(Nc3nc4ccccc4n3Cc3ccc(F)cc3)CC2)n1
17,63.5 °C,Cc1cc(F)ccc1C(=O)CCCN1CCC(O)(c2cccc(C(F)(F)F)c2)CC1
18,92 to 94 °C,[N-]=[N+]=NCc1ccc(C(=O)c2c(Cl)cccc2Cl)cc1
19,109 to 110 °C,CCOc1cc(C(O)c2ccccn2)ccc1OCc1ccccc1 (stereo not given)
20,> 200 °C,N#Cc1c(N2CCc3ccccc3CC2)nc2n(c1=O)CCN2
21,53 to 54 °C,CCc1ccc(CCOc2ccc([N+](=O)[O-])cc2)nc1
